Experimental data from ChEMBL document CHEMBL4393727, “Investigating 1,2,3,4,5,6-hexahydroazepino[4,3-b]indole as scaffold of butyrylcholinesterase-selective inhibitors with additional neuroprotective activities for Alzheimer's disease” (Eur J Med Chem, 2019).
Calls of active or inactive are those of the source. The rule behind the calls is not given here.

How the values were obtained:
Acetylcholinesterase [1] = biological target: Acetylcholinesterase (Electrophorus electricus, UniProt O42275); experiment: Inhibition of electric eel AChE using acetylthiocholine iodide as substrate preincubated for 20 mins followed by substrate addition and measured upto 5 mins by Ellman's method
Cholinesterase [2] = biological target: T1, Cholinesterase (Equus caballus, UniProt P81908); experiment: Inhibition of equine serum BChE using butyrylthiocholine as substrate preincubated for 20 mins followed by substrate addition and measured upto 5 mins by Ellman's method
SH-SY5Y [3] = experiment: Neuroprotective activity against H2O2-induced oxidative stress in human SH-SY5Y cells assessed as reduction in ROS generation preincubated for 1 hr followed by DCFH-DA addition for 30 mins and subsequent co-treatment with compound and H2O2 for 30 min by fluorescence assay; type: functional, cell-based
Cholinesterase [4] = biological target: T1, Cholinesterase; experiment: Mixed type inhibition of equine serum BChE assessed as Ki using butyrylthiocholine as substrate preincubated for 20 mins followed by substrate addition and measured upto 5 mins by Ellman's method based Lineweaver-Burk plot analysis
Acetylcholinesterase [5] = biological target: Acetylcholinesterase (Homo sapiens, UniProt P22303); experiment: Inhibition of human AChE using acetylthiocholine iodide as substrate preincubated for 20 mins followed by substrate addition and measured upto 5 mins by Ellman's method
Cholinesterase [6] = biological target: Cholinesterase (Homo sapiens, UniProt P06276); experiment: Inhibition of human BChE using butyrylthiocholine as substrate preincubated for 20 mins followed by substrate addition and measured upto 5 mins by Ellman's method
[7] = biological target: Amyloid-beta precursor protein (Homo sapiens) (UniProt P05067); experiment: Inhibition of HFIP treated amyloid beta (1 to 40) (unknown origin) self-induced aggregation at 100 uM measured after 2 hrs by Thioflavin T fluorescence assay relative to control
SH-SY5Y [8] = experiment: Neuroprotection activity against amyloid beta (1 to 42)-induced toxicity in human SH-SY5Y cells assessed as recovery of viability at 5 uM measured after 24 hrs by MTT assay relative to control; type: functional
SH-SY5Y [9] = experiment: Neuroprotection activity against amyloid beta (1 to 42)-induced cytotoxicity in human SH-SY5Y cells assessed as recovery of viability at 5 uM measured after 48 hrs by MTT assay relative to control; type: functional
SH-SY5Y [10] = experiment: Cytotoxicity in human SH-SY5Y cells assessed as decrease in cell viability at 5 uM measured after 48 hrs by MTT assay relative to control; type: cell-based
SH-SY5Y [11] = experiment: Neuroprotection activity against amyloid beta (1 to 42)-induced cytotoxicity in human SH-SY5Y cells assessed as recovery of viability at 5 uM by MTT assay; type: functional, cell-based; details: TDE = time-dependent effect
[12] = Aqueous solubility of the compound in phosphate buffered saline at pH 7.4 by reverse phase HPLC analysis; type: physicochemical
[13] = Selectivity index, ratio of IC50 for electric eel AChE to IC50 for equine serum BuChE
[14] = Selectivity index, ratio of IC50 for electric eel AChE to IC50 for human BuChE
SH-SY5Y [15] = experiment: Neuroprotective activity against H2O2-induced oxidative stress in human SH-SY5Y cells assessed as reduction in ROS generation at 100 uM preincubated for 1 hr followed by DCFH-DA addition for 30 mins and subsequent co-treatment with compound and H2O2 for 30 min by fluorescence assay; type: functional, cell-based
[16] = biological target: Amyloid-beta precursor protein (Homo sapiens) (UniProt P05067); experiment: Inhibition of HFIP treated amyloid beta (1 to 40) (unknown origin) self-induced aggregation at 100 uM measured after 2 hrs by Thioflavin T fluorescence assay

Amyloid-beta precursor protein (Homo sapiens), sequence (P05067 whole entry): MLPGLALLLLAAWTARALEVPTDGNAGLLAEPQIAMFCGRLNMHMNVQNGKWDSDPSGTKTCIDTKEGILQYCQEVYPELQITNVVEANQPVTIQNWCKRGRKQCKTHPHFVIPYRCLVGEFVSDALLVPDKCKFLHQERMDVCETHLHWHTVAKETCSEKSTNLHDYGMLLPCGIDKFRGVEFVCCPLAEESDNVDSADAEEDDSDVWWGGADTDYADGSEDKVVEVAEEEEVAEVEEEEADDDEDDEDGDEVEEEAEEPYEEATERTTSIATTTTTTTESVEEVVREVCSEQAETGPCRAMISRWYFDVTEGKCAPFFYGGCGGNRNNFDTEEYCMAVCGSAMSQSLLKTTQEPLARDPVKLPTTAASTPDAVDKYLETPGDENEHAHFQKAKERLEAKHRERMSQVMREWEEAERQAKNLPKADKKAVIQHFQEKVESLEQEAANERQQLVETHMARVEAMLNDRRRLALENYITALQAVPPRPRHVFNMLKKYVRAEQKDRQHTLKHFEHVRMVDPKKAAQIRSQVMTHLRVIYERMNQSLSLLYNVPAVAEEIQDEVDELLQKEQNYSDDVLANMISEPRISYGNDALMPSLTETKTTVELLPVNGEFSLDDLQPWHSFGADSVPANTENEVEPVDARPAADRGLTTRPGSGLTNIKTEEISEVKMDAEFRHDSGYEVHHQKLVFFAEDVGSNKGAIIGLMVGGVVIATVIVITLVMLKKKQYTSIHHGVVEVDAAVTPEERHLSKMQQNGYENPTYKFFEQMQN
Acetylcholinesterase (Electrophorus electricus, UniProt O42275), sequence (O42275 whole entry): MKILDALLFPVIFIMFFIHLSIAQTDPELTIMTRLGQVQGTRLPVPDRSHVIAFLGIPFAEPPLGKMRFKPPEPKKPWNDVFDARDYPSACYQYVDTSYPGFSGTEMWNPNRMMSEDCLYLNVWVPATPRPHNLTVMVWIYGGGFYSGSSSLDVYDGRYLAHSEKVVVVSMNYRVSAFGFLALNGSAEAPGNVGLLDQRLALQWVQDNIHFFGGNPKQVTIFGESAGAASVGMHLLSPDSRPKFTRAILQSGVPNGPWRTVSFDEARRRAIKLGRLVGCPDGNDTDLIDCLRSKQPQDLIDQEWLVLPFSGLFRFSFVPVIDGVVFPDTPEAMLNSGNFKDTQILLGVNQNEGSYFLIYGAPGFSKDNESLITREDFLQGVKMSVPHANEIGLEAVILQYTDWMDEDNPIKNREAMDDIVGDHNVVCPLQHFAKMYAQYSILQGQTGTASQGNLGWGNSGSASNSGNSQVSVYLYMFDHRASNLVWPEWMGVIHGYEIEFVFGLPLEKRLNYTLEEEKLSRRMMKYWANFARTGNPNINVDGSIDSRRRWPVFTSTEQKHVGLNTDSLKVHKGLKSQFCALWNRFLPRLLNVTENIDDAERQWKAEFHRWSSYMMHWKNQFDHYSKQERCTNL
T1 sequence (P81908 whole entry): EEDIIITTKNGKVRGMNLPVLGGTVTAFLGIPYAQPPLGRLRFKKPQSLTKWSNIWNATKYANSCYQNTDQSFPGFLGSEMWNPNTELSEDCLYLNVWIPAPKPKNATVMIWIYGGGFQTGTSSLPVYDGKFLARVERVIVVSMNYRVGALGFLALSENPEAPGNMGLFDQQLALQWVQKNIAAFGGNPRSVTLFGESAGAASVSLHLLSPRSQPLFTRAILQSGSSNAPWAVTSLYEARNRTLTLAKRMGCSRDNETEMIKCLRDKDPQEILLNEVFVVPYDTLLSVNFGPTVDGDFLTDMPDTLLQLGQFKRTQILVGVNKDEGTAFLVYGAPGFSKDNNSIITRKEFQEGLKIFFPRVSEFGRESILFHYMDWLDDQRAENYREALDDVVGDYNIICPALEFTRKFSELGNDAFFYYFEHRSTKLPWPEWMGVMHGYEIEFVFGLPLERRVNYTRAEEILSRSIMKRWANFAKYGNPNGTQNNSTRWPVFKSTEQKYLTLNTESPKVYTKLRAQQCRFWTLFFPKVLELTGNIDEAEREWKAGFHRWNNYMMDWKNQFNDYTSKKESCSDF
Cholinesterase (Homo sapiens, UniProt P06276), sequence (P06276 whole entry): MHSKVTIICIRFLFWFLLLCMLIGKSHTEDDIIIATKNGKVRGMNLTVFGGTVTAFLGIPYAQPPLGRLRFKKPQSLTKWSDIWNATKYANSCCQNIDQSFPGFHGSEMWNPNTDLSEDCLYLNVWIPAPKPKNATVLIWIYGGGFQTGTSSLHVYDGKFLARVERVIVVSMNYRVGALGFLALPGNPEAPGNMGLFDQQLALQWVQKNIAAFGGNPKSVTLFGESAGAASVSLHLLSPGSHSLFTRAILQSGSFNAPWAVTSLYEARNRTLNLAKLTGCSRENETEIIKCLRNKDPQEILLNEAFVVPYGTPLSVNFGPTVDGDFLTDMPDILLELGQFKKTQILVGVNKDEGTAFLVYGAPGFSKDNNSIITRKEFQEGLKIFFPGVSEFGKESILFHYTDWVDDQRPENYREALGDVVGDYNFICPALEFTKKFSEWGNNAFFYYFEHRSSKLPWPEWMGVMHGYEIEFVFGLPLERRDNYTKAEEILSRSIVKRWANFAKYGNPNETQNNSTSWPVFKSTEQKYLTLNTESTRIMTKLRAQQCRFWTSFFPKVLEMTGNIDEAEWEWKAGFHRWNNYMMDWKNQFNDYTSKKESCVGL
Acetylcholinesterase (Homo sapiens, UniProt P22303), sequence (P22303 whole entry): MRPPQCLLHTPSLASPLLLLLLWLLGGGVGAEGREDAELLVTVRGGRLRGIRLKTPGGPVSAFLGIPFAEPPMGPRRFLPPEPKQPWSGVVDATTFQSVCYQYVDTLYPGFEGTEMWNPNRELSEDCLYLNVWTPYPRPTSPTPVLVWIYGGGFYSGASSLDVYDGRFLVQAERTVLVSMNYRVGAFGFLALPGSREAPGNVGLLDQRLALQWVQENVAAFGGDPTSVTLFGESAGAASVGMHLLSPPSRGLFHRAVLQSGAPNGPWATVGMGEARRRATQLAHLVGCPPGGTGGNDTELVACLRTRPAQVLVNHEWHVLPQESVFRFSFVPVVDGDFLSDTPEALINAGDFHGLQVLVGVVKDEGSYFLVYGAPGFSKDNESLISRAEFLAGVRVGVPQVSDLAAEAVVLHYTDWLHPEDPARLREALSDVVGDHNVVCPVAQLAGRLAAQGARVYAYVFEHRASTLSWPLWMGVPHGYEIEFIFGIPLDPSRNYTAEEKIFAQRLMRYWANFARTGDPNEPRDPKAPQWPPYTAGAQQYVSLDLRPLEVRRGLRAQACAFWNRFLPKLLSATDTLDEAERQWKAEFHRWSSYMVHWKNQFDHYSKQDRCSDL

| Structure (SMILES) | IC50 (Acetylcholinesterase [1]) [µM] | IC50 (Cholinesterase [2]) [µM] | Ratio IC50 [13] | further results |
| --- | --- | --- | --- | --- |
| Fc1ccc2[nH]c3c(c2c1)CN(Cc1ccccc1)CCC3 | 4.96 | 2.13 |  |  |
| Cl.c1ccc(CCCCN2CCCc3[nH]c4ccccc4c3C2)cc1 | 20 | 0.17 | > 100 | Activity (SH-SY5Y [3]): Dose-dependent effect; IC50 (SH-SY5Y [3]): 10.1 µM; Ki (Cholinesterase [4]): 0.098 µM; IC50 (Acetylcholinesterase [5]): 20 µM; IC50 (Cholinesterase [6]): 0.199 µM; inhibition [7]: 38 to 54%; Activity (SH-SY5Y [8]): 35%; Activity (SH-SY5Y [9]): 30%; Activity (SH-SY5Y [10]): 30%; Activity (SH-SY5Y [11]): Tde; solubility [12]: > 1000 µM; Ratio IC50 [14]: > 100 |
| CCN(CC)Cc1ccc(CN2CCCc3[nH]c4ccc(F)cc4c3C2)cc1 | 4.8 | 1.4 |  |  |
| O=c1c(O)c(-c2ccc(O)c(O)c2)oc2cc(O)cc(O)c12 |  |  |  | Activity (SH-SY5Y [15]): Active; inhibition [16]: Active |
| Fc1ccc(CN2CCCc3[nH]c4ccccc4c3C2)cc1 | 12 | 1.2 | 10 |  |
| Cc1ccc2[nH]c3c(c2c1)CNCCC3 | 45 | 8 |  |  |
| Cl.c1ccc(CCCN2CCCc3[nH]c4ccccc4c3C2)cc1 | 20 | 0.28 | 10 to 100 | inhibition [7]: 38 to 54%; solubility [12]: > 1000 µM |
| c1ccc(CN2CCCc3[nH]c4ccccc4c3C2)cc1 | 8.7 | 2 |  | inhibition [7]: 38 to 54% |
| Cc1ccc2[nH]c3c(c2c1)CN(Cc1ccccc1)CCC3 | 6.95 | 1.2 |  |  |
| O=C(c1ccccc1)N1CCCc2[nH]c3ccc(F)cc3c2C1 | 10.6 | 6 |  |  |
| Fc1ccc2[nH]c3c(c2c1)CNCCC3 | 16 | 4.3 |  |  |
| Fc1ccc2[nH]c3c(c2c1)CN(Cc1ccc(CN2CCCC2)cc1)CCC3 | 7.9 | 4.3 |  |  |
| Fc1ccc(CN2CCCc3[nH]c4ccc(F)cc4c3C2)cc1 | 4.1 | 2.9 |  |  |
| Fc1ccc2[nH]c3c(c2c1)CCCN(Cc1ccccc1)C3 | 10.7 | 3.4 |  |  |
| c1ccc2c3c([nH]c2c1)CCCNC3 | 70 | 20 |  |  |
| Cc1ccc2[nH]c3c(c2c1)CN(C)CCC3 | 25 | 7.1 |  |  |
| Cn1c2c(c3ccccc31)CN(CCc1ccccc1)CCC2 | 12 | 0.86 | 10 to 100 | inhibition [7]: 38 to 54% |
| CN1CCCc2[nH]c3ccccc3c2C1 | 7.1 | 25 |  |  |
| Cl.c1ccc(CCN2CCCc3[nH]c4ccccc4c3C2)cc1 | 9 | 0.7 | 10 to 100 | inhibition [7]: 38 to 54%; solubility [12]: > 1000 µM |
| Cc1ccc(CN2CCCc3[nH]c4ccccc4c3C2)cc1 | 10 | 0.95 | 10 |  |
